Patent US20250195504A1, “NALTREXAMINE DERIVATIVES BEARING 5-MEMBER HETEROCYCLIC RING SYSTEMS AND OPIOID RECEPTOR MODULATORS” (VIRGINIA COMMONWEALTH UNIVERSITY, priority 2022, published 2025)
Structures can show the parent of a compound that is named as a salt. Where two headings read alike, the source gives them in different places.

How the values were obtained:
[1] = Protein Binding (plasma), human
hERG channel = hERG channel (Homo sapiens, UniProt Q12809); test: hERG channel testing
MOR = MOR (Mus musculus, UniProt P42866); test: MOR [35S]GTPγS functional assay (MOR-CHO membranes); type: biochemical; parameters: expressed in transfected cells; host or cells: CHO; settings: Tables A, B
Description: The [^35S]GTPγS functional assay was conducted to determine the efficacy of the compounds at the MOR. […] The Bradford protein assay was utilized to determine and adjust the concentration of protein required for the assay. Nonspecific binding was determined with 20 μM unlabeled GTPγS. Furthermore, 3 μM DAMGO was included in the assay as the maximally effective concentration of a full agonist for the MOR. After incubation, the bound radioactive ligand was separated from the free radioligand by filtration through a GF/B glass fiber filter paper and rinsed three times with ice-cold wash buffer (50 mM Tris-HCl, pH 7.2) using the Brandel harvester. Bound radioactivity was determined by liquid scintillation counting. All assays were determined in duplicate and repeated at least three times. Net stimulated [^35S]GTPγS binding was defined as agonist-stimulated minus basal binding in the absence of agonist. Percent of DAMGO-stimulated [^35S]GTPγS binding was defined as (net-stimulated binding by ligand/net-stimulated binding by 3 μM DAMGO)×100%.
Results were reported as mean values ±SEM.
The [^35S]-GTPγS binding assay was carried out as well to determine the functionality on the MOR of each compound. […] The [^35S]GTPγS functional assay was conducted to determine the efficacy of the compounds at the MOR, KOR and DOR. […] The Bradford protein assay was utilized to determine and adjust the concentration of protein required for the assay. Nonspecific binding was determined with 20 μM unlabeled GTPγS. Furthermore, 3 μM DAMGO/U50488H/SNC80 was included in the assay as the maximally effective concentration of a full agonist for the MOR/KOR/DOR. After incubation, the bound radioactive ligand was separated from the free radioligand by filtration through a GF/B glass fiber filter paper using a Brandel harvester. Bound radioactivity was determined by liquid scintillation counting. All assays were determined in duplicate and repeated at least three times. Net stimulated [^35S]GTPγS binding was defined as agonist-stimulated minus basal binding in the absence of agonist. Percent of DAMGO/U50488H/SNC80 stimulated [^35S]GTPγS binding was defined as (net-stimulated binding by ligand/net-stimulated binding by 3 μM DAMGO U50488H/SNC80)×100%.

[2] = Protein Binding (plasma), rat
hM2 = molecular target: T1, hM2 (Homo sapiens, UniProt P08172); test: side effect profiling, hM2; type: binding; settings: for hM2 binding: at 10 uM
T1 sequence (P08172 1-466): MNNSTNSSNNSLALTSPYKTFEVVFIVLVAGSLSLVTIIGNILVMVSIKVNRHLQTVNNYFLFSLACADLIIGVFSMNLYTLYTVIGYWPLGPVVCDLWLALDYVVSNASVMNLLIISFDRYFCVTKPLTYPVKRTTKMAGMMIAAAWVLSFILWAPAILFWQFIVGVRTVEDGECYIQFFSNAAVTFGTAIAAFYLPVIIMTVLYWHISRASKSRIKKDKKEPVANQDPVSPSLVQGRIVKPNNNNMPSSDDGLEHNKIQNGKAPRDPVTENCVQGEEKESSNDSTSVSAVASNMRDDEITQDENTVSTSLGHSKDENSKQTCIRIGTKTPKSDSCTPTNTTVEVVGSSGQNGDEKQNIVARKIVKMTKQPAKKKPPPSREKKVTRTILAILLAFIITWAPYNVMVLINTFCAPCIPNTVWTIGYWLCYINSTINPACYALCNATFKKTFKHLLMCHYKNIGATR

DOR = molecular target: T2, DOR (Homo sapiens, UniProt P41143); test: DOR [35S]GTPγS binding assay; type: biochemical; settings: Tables A, B
T2 construct: expressed in transfected cells; host or cells: CHO
Description: The [^35S]GTPγS functional assay was conducted to determine the efficacy of the compounds at the MOR, KOR and DOR. […] The Bradford protein assay was utilized to determine and adjust the concentration of protein required for the assay. Nonspecific binding was determined with 20 μM unlabeled GTPγS. Furthermore, 3 μM DAMGO/U50488H/SNC80 was included in the assay as the maximally effective concentration of a full agonist for the MOR/KOR/DOR. After incubation, the bound radioactive ligand was separated from the free radioligand by filtration through a GF/B glass fiber filter paper using a Brandel harvester. Bound radioactivity was determined by liquid scintillation counting. All assays were determined in duplicate and repeated at least three times. Net stimulated [^35S]GTPγS binding was defined as agonist-stimulated minus basal binding in the absence of agonist. Percent of DAMGO/U50488H/SNC80 stimulated [^35S]GTPγS binding was defined as (net-stimulated binding by ligand/net-stimulated binding by 3 μM DAMGO U50488H/SNC80)×100%.

male Swiss Webster mice = test: warm-water tail immersion assay, antagonism of morphine's antinociception; type: in vivo, mouse; settings: for Tail flick assay (dose response) AD50: 95% CL
Description: Following this single dose assessment, in vivo dose-response studies with eight identified antagonists were conducted.
Antinociceptive effect of synthesized compounds was determined using the warm-water tail immersion assay. Swiss Webster mice (six male mice for each group, 25-35 g, 6-8 weeks old) were used in this assay. Antinociception for all compounds was examined in male Swiss Webster mice. […] To prevent tissue damage, a 10 s maximum cutoff time was imposed. Antinociceptive response was calculated as the percentage of maximum possible effect (% MPE), where % MPE=[(test−control latency)/(10−control latency)]×100.
Warm-water tail immersion assay is a well-established assay for evaluating opioid analgesics, especially MOR agonists. […] In this context, all 24 compounds were first evaluated for their acute antinociception tail-withdrawal assay (FIG. 5A).
The tail-withdrawal test was performed using a water bath with the temperature maintained at 56±0.1° C. Baseline latency was measured before any injections. Each mouse was gently wrapped in a cloth with only the tail exposed. The distal one-third of the tail was immersed perpendicularly in water, and the mouse rapidly flicked the tail from the bath was seen as the first sign of discomfort. The duration of time the tail remained in the water bath was counted as the baseline latency. Untreated mice with baseline latency reaction times ranging from 2 to 4 seconds were used. Test latency was obtained 20 min later after each injection. A 10-second maximum cutoff latency was used to prevent any tissue damage. Antinociception was quantified as the percentage of maximal possible effect (% MPE), which was calculated as % MPE=[(test latency−control latency)/(10−control latency)]×100. The % MPE value was calculated for each mouse using 6 mice per group. Testing compounds were given 10 mg/kg (s.c.) to each mouse.

CYP2D6 = CYP2D6 (Homo sapiens, UniProt P10635); test: CYP450 enzyme testing, CYP2D6
[3] = Self-administration Studies, Abuse liability; settings: in vivo

Sequence of hERG channel (Q12809 whole entry): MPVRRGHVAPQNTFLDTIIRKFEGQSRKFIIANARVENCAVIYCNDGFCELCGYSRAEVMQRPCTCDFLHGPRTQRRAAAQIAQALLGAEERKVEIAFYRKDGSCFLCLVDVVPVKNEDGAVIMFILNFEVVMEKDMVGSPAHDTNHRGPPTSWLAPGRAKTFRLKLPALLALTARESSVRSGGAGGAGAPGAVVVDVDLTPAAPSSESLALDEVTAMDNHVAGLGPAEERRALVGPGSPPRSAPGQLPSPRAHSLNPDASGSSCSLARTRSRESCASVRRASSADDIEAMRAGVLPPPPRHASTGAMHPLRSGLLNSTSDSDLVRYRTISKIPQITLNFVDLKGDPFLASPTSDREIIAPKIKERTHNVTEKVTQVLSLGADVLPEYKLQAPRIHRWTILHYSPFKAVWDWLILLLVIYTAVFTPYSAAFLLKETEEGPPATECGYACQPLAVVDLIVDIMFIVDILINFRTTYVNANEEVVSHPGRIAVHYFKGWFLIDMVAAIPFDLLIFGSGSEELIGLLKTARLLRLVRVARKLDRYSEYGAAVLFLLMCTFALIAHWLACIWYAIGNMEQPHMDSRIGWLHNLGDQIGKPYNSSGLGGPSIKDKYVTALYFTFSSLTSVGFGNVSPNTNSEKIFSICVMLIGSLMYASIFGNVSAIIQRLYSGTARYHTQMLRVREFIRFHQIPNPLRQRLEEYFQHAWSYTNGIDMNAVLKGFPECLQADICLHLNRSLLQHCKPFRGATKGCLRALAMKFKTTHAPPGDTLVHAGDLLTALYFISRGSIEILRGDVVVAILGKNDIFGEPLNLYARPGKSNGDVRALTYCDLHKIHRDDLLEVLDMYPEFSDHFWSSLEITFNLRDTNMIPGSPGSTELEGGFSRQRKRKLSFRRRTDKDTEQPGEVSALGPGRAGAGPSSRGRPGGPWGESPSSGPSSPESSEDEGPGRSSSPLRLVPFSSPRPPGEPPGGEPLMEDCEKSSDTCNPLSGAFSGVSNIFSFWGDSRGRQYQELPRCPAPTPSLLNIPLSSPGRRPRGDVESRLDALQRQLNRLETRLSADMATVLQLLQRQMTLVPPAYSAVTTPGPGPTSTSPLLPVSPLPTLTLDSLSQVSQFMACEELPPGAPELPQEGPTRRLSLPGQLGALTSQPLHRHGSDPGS
Sequence of CYP2D6 (P10635 whole entry): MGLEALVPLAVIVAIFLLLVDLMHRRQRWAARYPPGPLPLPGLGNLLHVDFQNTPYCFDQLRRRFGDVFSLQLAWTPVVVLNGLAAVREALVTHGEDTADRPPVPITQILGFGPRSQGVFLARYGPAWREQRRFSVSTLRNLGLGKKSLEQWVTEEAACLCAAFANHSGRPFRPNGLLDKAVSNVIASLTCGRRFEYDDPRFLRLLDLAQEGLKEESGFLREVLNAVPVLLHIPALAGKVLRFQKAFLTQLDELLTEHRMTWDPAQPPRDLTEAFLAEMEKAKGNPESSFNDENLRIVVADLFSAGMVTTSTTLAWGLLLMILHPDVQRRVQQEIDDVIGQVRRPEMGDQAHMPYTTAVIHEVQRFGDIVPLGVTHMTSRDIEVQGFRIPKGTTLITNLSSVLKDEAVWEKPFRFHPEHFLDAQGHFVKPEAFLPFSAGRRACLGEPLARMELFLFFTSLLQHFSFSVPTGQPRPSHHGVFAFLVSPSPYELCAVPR
Sequence of MOR (P42866 whole entry): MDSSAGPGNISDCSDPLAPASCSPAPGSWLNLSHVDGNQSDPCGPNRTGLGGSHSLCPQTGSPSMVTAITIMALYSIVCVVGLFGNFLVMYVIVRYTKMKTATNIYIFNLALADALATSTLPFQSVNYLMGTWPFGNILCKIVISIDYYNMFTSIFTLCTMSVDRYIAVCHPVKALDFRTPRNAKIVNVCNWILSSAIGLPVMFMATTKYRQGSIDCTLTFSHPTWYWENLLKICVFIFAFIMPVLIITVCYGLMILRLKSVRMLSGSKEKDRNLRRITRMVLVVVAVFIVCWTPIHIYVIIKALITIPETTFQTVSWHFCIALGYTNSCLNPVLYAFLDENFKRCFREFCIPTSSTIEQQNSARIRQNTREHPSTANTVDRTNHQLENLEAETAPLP
T2 sequence (P41143 whole entry): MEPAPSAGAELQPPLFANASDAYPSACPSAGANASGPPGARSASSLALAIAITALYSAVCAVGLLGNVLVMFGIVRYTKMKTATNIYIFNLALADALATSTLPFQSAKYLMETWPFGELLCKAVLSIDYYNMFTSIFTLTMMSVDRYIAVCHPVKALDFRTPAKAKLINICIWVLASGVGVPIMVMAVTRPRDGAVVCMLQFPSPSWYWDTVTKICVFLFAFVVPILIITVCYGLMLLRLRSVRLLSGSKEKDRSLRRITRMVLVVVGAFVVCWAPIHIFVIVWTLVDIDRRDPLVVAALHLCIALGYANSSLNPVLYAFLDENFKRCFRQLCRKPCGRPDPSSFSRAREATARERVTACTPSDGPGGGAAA

Compound | fraction unbound [1] | hERG channel testing (Eurofins) (hERG channel) | EC50 (MOR; 35S-GTP[γS]-Binding MOR Potency EC50, nM) | 35S-GTP[γS]-Binding MOR Efficacy (% max of DAMGO) (MOR) | fraction unbound [2] | Ki (hM2) | hM2 binding (hM2) | 35S-GTP[γS]-Binding DOR Efficacy (% max of SNC80) (DOR) | Tail flick assay, antagonism of morphine's antinociceptive effect (in words) (male Swiss Webster mice; mice, single dose 10 mg/kg) | Tail flick assay (dose response) AD50 (male Swiss Webster mice; mice) | CYP2D6 inhibition (in words) (CYP2D6; human) | EC50 (MOR; read-out: 35S-GTP[γS]-Binding MOR Potency EC50) | Self-administration Studies Abuse liability [3] | EC50 (DOR; read-out: 35S-GTP[γS]-Binding DOR Potency EC50) | hERG channel testing (NIH) (hERG channel; NIH) | antagonism of morphine's antinociceptive effect (in words) (male Swiss Webster mice; Example 1 compounds, 10 mg/kg s.c. in the presence of morphine (10 mg/kg)) | AD50 mg/kg (95% CL) to antagonize morphine mediated antinociception (male Swiss Webster mice; Example 1 compounds, s.c., mice, morphine 10 mg/kg) | CYP2D6 inhibition (in words) (CYP2D6)
O=C(N[C@H]1CC[C@@]2(O)[C@H]3Cc4ccc(O)c5c4[C@@]2(CCN3CC2CC2)[C@H]1O5)c1cccs1 [Example 1 compound 25, 17-Cyclopropylmethyl-3,14β-dihydroxy-4,5α-epoxy-6α-(2′-thienylcarboxamido)morphinan hydrochloride] | 0.63 | 2.5 µM (Eurofins) | 0.49 ± 0.09 nM | 21.81 ± 6.17% | 0.36 | 1900 nM | 81% | 48.58 ± 3.41% |  |  |  |  |  |  |  |  |  | 
O=C(N[C@H]1CC[C@@]2(O)[C@H]3Cc4ccc(O)c5c4[C@@]2(CCN3CC2CC2)[C@H]1O5)c1nccs1 [NTZ, 17-Cyclopropylmethyl-3,14β-dihydroxy-4,5α-epoxy-6α-(2′-thiazolylcarboxamido)morphinan hydrochloride] | 0.56 | 7.4 µM (Eurofins) |  | 11.29 ± 1.30% | 0.4 |  | hM2 (88% at 10 uM) | 46.51 ± 2.17% | significantly antagonized morphine's antinociceptive | The AD50 of VZMN283 was determined as 0.043 mg/kg | potent at CYP2D6 inhibition | 2.16 ± 0.38 nM | No significant abuse liability | 23.6 ± 4.29 nM |  |  |  | 
O=C(N[C@H]1CCC2(O)C3Cc4ccc(O)c5c4[C@@]2(CCN3CC2CC2)[C@H]1O5)c1ccc[nH]1 (stereo partly drawn) [Example 1 compound 1, 17-Cyclopropylmethyl-3,14β-dihydroxy-4,5α-epoxy-6a-[(2′-pyrrolyl)carboxamido]morphinan hydrochloride] | 0.43 | 2.6 µM |  | 12.11 ± 2.64% | 0.43 | 7280 nM | 58% | 50.94 ± 5.26% |  | The AD50 of NAY was determined as 4.71 (1.61- mg/kg | Only moderate at CYP2D6 and CYP2C19 |  | No significant abuse liability |  | 12.5 µM |  |  | 
O=C(N[C@H]1CC[C@@]2(O)[C@H]3Cc4ccc(O)c5c4[C@@]2(CCN3CC2CC2)[C@H]1O5)c1ccsc1 [Example 1 compound 31, 17-Cyclopropylmethyl-3,14β-dihydroxy-4,5α-epoxy-6α-(3′-thienylcarboxamido)morphinan hydrochloride] | 0.4 | 1.3 µM (Eurofins) |  | 30.66 ± 4.44% | 0.44 |  | hM2 (82% at 10 uM) | 58.5 ± 3.13% |  |  |  |  | No significant abuse liability |  |  | significantly antagonized morphine's antinociceptive effect | 1.51 mg/kg | Only moderate at CYP2D6 and CYP2C19
